From patent publication US20140309310A1 (GACHON UNIVERSITY OF INDUSTRY-ACADEMIC COOPERATION …, priority 2011, published 2014)

Legend:
[1] = test system: osteopenia induced by aging (female C57BL/6J mice); test: Whole-body bone mineral density and bone mass by DEXA in mice with osteoporosis induced by aging; assay type: in vivo, mouse; conditions: DDS 2 mg/kg over 12 weeks
Description: The mice were acclimated for 1 week, housed at a temperature of 21±1° C. and a humidity of 60%, and allowed access to food ad libitum.

Caenorhabditis elegans = conditions: reported; cited from earlier work
[2] = test system: ovariectomy-induced osteoporosis (ovariectomized BALB/c mice); test: High-resolution micro-CT imaging of femoral trabecular bone, trabecular thickness and separation in ovariectomized mice; assay type: in vivo, mouse; conditions: OVX mice, DDS oral 2 mg/kg
Description: 10-week-old BALB/c mice were subjected to ovariectomy (OVX) to make experimental animal models with osteopenia induced by OVX. […] All the animal studies were approved by the Animal Research Ethical Committee of Seoul National University. The trabecular bone of femoral region adjacent to the mouse shin was imaged by radiography using high-resolution micro-CT. The right limb of the mice was excised and stored in 10% formalin for one day. Then, the bone tissue was stored in 70% alcohol at 4° C. until use in analysis. The bone tissue was imaged by computer tomography using Skyscan 1076 Desktop X-ray Microtomograph (Skyscan, Belgium) at a tube voltage of 100 kV and an exposure current of 200 μA. For the acquired images, bone mineral density (BMD) and bone volume (BV) were measured using Skyscan CTan ver. 1.5.0 and Shortcut to ANT image analysis program (Skyscan, Belgium), and the acquired images were reconstituted into three-dimensional images. In addition, trabecular thickness (Tb. Th) and trabecular separation (Tb. Sp), which are the indices of morphological microstructures on the micro CT images, were measured, and the results of the measurement are shown in FIG. 3.

[3] = test system: ovariectomy-induced osteoporosis (ovariectomized BALB/c mice); test: Whole-body bone mineral density and bone mass by dual energy X-ray absorptiometry (DEXA) in ovariectomized mice; assay type: in vivo, mouse; conditions: DDS oral 2 mg/kg from 1 week before to 12 weeks after ovariectomy, whole body DEXA at 12 weeks, P<0.05 vs OVX
From the text: 10-week-old BALB/c mice were subjected to ovariectomy (OVX) to make experimental animal models with osteopenia induced by OVX. […] All the animal studies were approved by the Animal Research Ethical Committee of Seoul National University.

Nc1ccc(S(=O)(=O)c2ccc(N)cc2)cc1 [DDS, diaminodiphenylsulfone]
change in bone mass, 8-month-old mice ([1]; female C57BL/6J): no significant change
change in bone mineral density, 8-month-old mice ([1]; female C57BL/6J): no significant change
increase in bone mass, 30-month-old mice ([1]; female mice): 9.6%
increase in bone mineral density, 30-month-old mice ([1]; female mice): 5.11%
increase of life span of Caenorhabditis elegans (Caenorhabditis elegans): 20-30%
microstructure of the bone section (micro-CT three-dimensional image) ([2]; femoral trabecular bone): as dense as that of the negative control group
trabecular separation (Tb. Sp) ([2]; micro-CT of femoral region): levels similar to those of the negative control group
trabecular thickness (Tb. Th) ([2]; micro-CT of femoral region): levels similar to those of the negative control group
increase in bone mass compared to the positive control group (OVX) [3]: 9.13%
increase in bone mineral density compared to the positive control group (OVX) [3]: 4.09%
